Test system: patients with advanced solid tumors
Experiment: Adverse events
[1] = escalation 35 mg + G-CSF (n = 3)
[2] = escalation 40 mg + G-CSF (n = 11)
[3] = escalation 50 mg + G-CSF (n = 4)
[4] = escalation 1, 2, 4, 8 mg (n = 4)
[5] = expansion 40 mg + G-CSF, CRPC (n = 12)
[6] = expansion 40 mg + G-CSF, OC (n = 29)
[7] = expansion 40 mg + G-CSF, TNBC (n = 14)

## Cc1csc(-c2nnc(Nc3ccc(Oc4ncccc4-c4ccnc(N)n4)cc3)c3ccccc23)c1 [AMG 900]
[1]
  All treatment-related AEs: 3 (100) n (%)
  Fatal AEs: 0 n (%)
  Grade ≥ 3 AEs: 2 (67) n (%)
  Grade ≥ 3 treatment-related AEs: 2 (67) n (%)
  Grade ≥ 3 treatment-related AEs: Anemia: 0 n (%)
  Grade ≥ 3 treatment-related AEs: Diarrhea: 0 n (%)
  Grade ≥ 3 treatment-related AEs: Fatigue: 0 n (%)
  Grade ≥ 3 treatment-related AEs: Febrile neutropenia: 0 n (%)
  Grade ≥ 3 treatment-related AEs: Hemoglobin decreased: 0 n (%)
  Grade ≥ 3 treatment-related AEs: Leukopenia: 1 (33) n (%)
  Grade ≥ 3 treatment-related AEs: Lymphopenia: 0 n (%)
  Grade ≥ 3 treatment-related AEs: Nausea: 0 n (%)
  Grade ≥ 3 treatment-related AEs: Neutropenia: 1 (33) n (%)
  Grade ≥ 3 treatment-related AEs: Thrombocytopenia: 0 n (%)
  Grade ≥ 3 treatment-related AEs: Vomiting: 1 (33) n (%)
  Grade ≥ 3 treatment-related AEs: White blood cell count decreased: 0 n (%)
  Grade ≥ 4 AEs: 1 (33) n (%)
  Serious AEs: 1 (33) n (%)
[2]
  AEs leading to discontinuation of AMG 900: 2 (18) n (%)
  All treatment-emergent AEs: 11 (100) n (%)
  All treatment-related AEs: 10 (91) n (%)
  Fatal AEs: 0 n (%)
  Grade ≥ 3 AEs: 8 (73) n (%)
  Grade ≥ 3 treatment-related AEs: 6 (55) n (%)
  Grade ≥ 3 treatment-related AEs: Anemia: 0 n (%)
  Grade ≥ 3 treatment-related AEs: Diarrhea: 2 (18) n (%)
  Grade ≥ 3 treatment-related AEs: Fatigue: 0 n (%)
  Grade ≥ 3 treatment-related AEs: Febrile neutropenia: 2 (18) n (%)
  Grade ≥ 3 treatment-related AEs: Hemoglobin decreased: 0 n (%)
  Grade ≥ 3 treatment-related AEs: Leukopenia: 1 (9) n (%)
  Grade ≥ 3 treatment-related AEs: Lymphopenia: 1 (9) n (%)
  Grade ≥ 3 treatment-related AEs: Nausea: 0 n (%)
  Grade ≥ 3 treatment-related AEs: Neutropenia: 5 (46) n (%)
  Grade ≥ 3 treatment-related AEs: Thrombocytopenia: 1 (9) n (%)
  Grade ≥ 3 treatment-related AEs: Vomiting: 0 n (%)
  Grade ≥ 3 treatment-related AEs: White blood cell count decreased: 0 n (%)
  Grade ≥ 4 AEs: 4 (36) n (%)
  Serious AEs: 3 (27) n (%)
[3]
  AEs leading to discontinuation of AMG 900: 2 (50) n (%)
  All treatment-emergent AEs: 4 (100) n (%)
  All treatment-related AEs: 4 (100) n (%)
  Fatal AEs: 1 (25) n (%)
  Grade ≥ 3 AEs: 3 (75) n (%)
  Grade ≥ 3 treatment-related AEs: 3 (75) n (%)
  Grade ≥ 3 treatment-related AEs: Anemia: 1 (25) n (%)
  Grade ≥ 3 treatment-related AEs: Diarrhea: 0 n (%)
  Grade ≥ 3 treatment-related AEs: Fatigue: 2 (50) n (%)
  Grade ≥ 3 treatment-related AEs: Febrile neutropenia: 1 (25) n (%)
  Grade ≥ 3 treatment-related AEs: Hemoglobin decreased: 0 n (%)
  Grade ≥ 3 treatment-related AEs: Leukopenia: 1 (25) n (%)
  Grade ≥ 3 treatment-related AEs: Lymphopenia: 0 n (%)
  Grade ≥ 3 treatment-related AEs: Nausea: 0 n (%)
  Grade ≥ 3 treatment-related AEs: Neutropenia: 1 (25) n (%)
  Grade ≥ 3 treatment-related AEs: Thrombocytopenia: 1 (25) n (%)
  Grade ≥ 3 treatment-related AEs: Vomiting: 0 n (%)
  Grade ≥ 3 treatment-related AEs: White blood cell count decreased: 0 n (%)
  Grade ≥ 4 AEs: 2 (50) n (%)
  Serious AEs: 2 (50) n (%)
[4]
  AEs leading to discontinuation of AMG 900: 0 n (%)
  All treatment-emergent AEs: 4 (100) n (%)
  All treatment-related AEs: 3 (75) n (%)
  Fatal AEs: 0 n (%)
  Grade ≥ 3 AEs: 1 (25) n (%)
  Grade ≥ 3 treatment-related AEs: 1 (25) n (%)
  Grade ≥ 3 treatment-related AEs: Anemia: 1 (25) n (%)
  Grade ≥ 3 treatment-related AEs: Diarrhea: 0 n (%)
  Grade ≥ 3 treatment-related AEs: Fatigue: 0 n (%)
  Grade ≥ 3 treatment-related AEs: Febrile neutropenia: 0 n (%)
  Grade ≥ 3 treatment-related AEs: Hemoglobin decreased: 0 n (%)
  Grade ≥ 3 treatment-related AEs: Leukopenia: 0 n (%)
  Grade ≥ 3 treatment-related AEs: Lymphopenia: 0 n (%)
  Grade ≥ 3 treatment-related AEs: Nausea: 0 n (%)
  Grade ≥ 3 treatment-related AEs: Neutropenia: 0 n (%)
  Grade ≥ 3 treatment-related AEs: Thrombocytopenia: 0 n (%)
  Grade ≥ 3 treatment-related AEs: Vomiting: 0 n (%)
  Grade ≥ 3 treatment-related AEs: White blood cell count decreased: 0 n (%)
  Grade ≥ 4 AEs: 0 n (%)
  Serious AEs: 0 n (%)
[5]
  AEs leading to discontinuation of AMG 900: 3 (25) n (%)
  All treatment-emergent AEs: 12 (100) n (%)
  All treatment-related AEs: 12 (100) n (%)
  Fatal AEs: 0 n (%)
  Grade ≥ 3 AEs: 9 (75) n (%)
  Grade ≥ 3 treatment-related AEs: 6 (50) n (%)
  Grade ≥ 3 treatment-related AEs: Anemia: 2 (17) n (%)
  Grade ≥ 3 treatment-related AEs: Diarrhea: 0 n (%)
  Grade ≥ 3 treatment-related AEs: Fatigue: 2 (17) n (%)
  Grade ≥ 3 treatment-related AEs: Febrile neutropenia: 0 n (%)
  Grade ≥ 3 treatment-related AEs: Hemoglobin decreased: 1 (8) n (%)
  Grade ≥ 3 treatment-related AEs: Leukopenia: 0 n (%)
  Grade ≥ 3 treatment-related AEs: Lymphopenia: 1 (8) n (%)
  Grade ≥ 3 treatment-related AEs: Nausea: 2 (17) n (%)
  Grade ≥ 3 treatment-related AEs: Neutropenia: 3 (25) n (%)
  Grade ≥ 3 treatment-related AEs: Thrombocytopenia: 1 (8) n (%)
  Grade ≥ 3 treatment-related AEs: Vomiting: 0 n (%)
  Grade ≥ 3 treatment-related AEs: White blood cell count decreased: 0 n (%)
  Grade ≥ 4 AEs: 2 (17) n (%)
  Serious AEs: 4 (33) n (%)
[6]
  AEs leading to discontinuation of AMG 900: 5 (17) n (%)
  All treatment-emergent AEs: 29 (100) n (%)
  All treatment-related AEs: 28 (97) n (%)
  Fatal AEs: 0 n (%)
  Grade ≥ 3 AEs: 25 (86) n (%)
  Grade ≥ 3 treatment-related AEs: 22 (76) n (%)
  Grade ≥ 3 treatment-related AEs: Anemia: 12 (41) n (%)
  Grade ≥ 3 treatment-related AEs: Diarrhea: 1 (3) n (%)
  Grade ≥ 3 treatment-related AEs: Fatigue: 1 (3) n (%)
  Grade ≥ 3 treatment-related AEs: Febrile neutropenia: 6 (21) n (%)
  Grade ≥ 3 treatment-related AEs: Hemoglobin decreased: 2 (7) n (%)
  Grade ≥ 3 treatment-related AEs: Leukopenia: 3 (10) n (%)
  Grade ≥ 3 treatment-related AEs: Lymphopenia: 1 (3) n (%)
  Grade ≥ 3 treatment-related AEs: Nausea: 0 n (%)
  Grade ≥ 3 treatment-related AEs: Neutropenia: 17 (59) n (%)
  Grade ≥ 3 treatment-related AEs: Thrombocytopenia: 6 (21) n (%)
  Grade ≥ 3 treatment-related AEs: Vomiting: 1 (3) n (%)
  Grade ≥ 3 treatment-related AEs: White blood cell count decreased: 2 (7) n (%)
  Grade ≥ 4 AEs: 12 (41) n (%)
  Serious AEs: 14 (48) n (%)
[7]
  AEs leading to discontinuation of AMG 900: 5 (36) n (%)
  All treatment-emergent AEs: 14 (100) n (%)
  All treatment-related AEs: 13 (93) n (%)
  Fatal AEs: 3 (21) n (%)
  Grade ≥ 3 AEs: 11 (79) n (%)
  Grade ≥ 3 treatment-related AEs: 6 (43) n (%)
  Grade ≥ 3 treatment-related AEs: Anemia: 4 (29) n (%)
  Grade ≥ 3 treatment-related AEs: Diarrhea: 1 (7) n (%)
  Grade ≥ 3 treatment-related AEs: Fatigue: 0 n (%)
  Grade ≥ 3 treatment-related AEs: Febrile neutropenia: 1 (7) n (%)
  Grade ≥ 3 treatment-related AEs: Hemoglobin decreased: 0 n (%)
  Grade ≥ 3 treatment-related AEs: Leukopenia: 0 n (%)
  Grade ≥ 3 treatment-related AEs: Lymphopenia: 0 n (%)
  Grade ≥ 3 treatment-related AEs: Nausea: 1 (7) n (%)
  Grade ≥ 3 treatment-related AEs: Neutropenia: 4 (29) n (%)
  Grade ≥ 3 treatment-related AEs: Thrombocytopenia: 1 (7) n (%)
  Grade ≥ 3 treatment-related AEs: Vomiting: 0 n (%)
  Grade ≥ 3 treatment-related AEs: White blood cell count decreased: 0 n (%)
  Grade ≥ 4 AEs: 5 (36) n (%)
  Serious AEs: 7 (50) n (%)

— PMC6639057 (Investigational new drugs, 2018)
